Test results taken from article doi:10.1101/2023.02.27.530254, “Large library docking for cannabinoid-1 receptor agonists with reduced side effects” (bioRxiv, 2024).
“And” between values parts separate entries of the source, which are not always exact repeats. Identical values can stand only once.

Columns and labels:
CB1 = biological target: T1, CB1 (Rattus norvegicus, UniProt P20272); test: Radioligand competition binding with [3H]-CP-55,940, rat brain membranes; conditions: for Ki: [3H]-CP-55,940 competition, rat brain membranes
T1 construct: membrane preparations from rat brain (source of CB1); tissue Bioivt RAT00BRAINMZN; host or cells: rat brain
Protocol: The results were analyzed using nonlinear regression to determine the IC50 and Ki values for each ligand (Prism by GraphPad Software, Inc., San Diego, CA). The Ki values are expressed as the mean of two to three experiments each performed in triplicate.

CB1R = biological target: T2, CB1R (Homo sapiens, UniProt P21554, C107A/C139A/C149A/C238A/C355A/C382A/C386A/C415A/C431A/C449A/C98A/R336C); test: Bimane fluorescence of TM6-labeled minimal cysteine CB1R; type: biochemical; conditions: 10 μM ligand; apo 459 nm
T2 construct: N-terminal FLAG tag and C-terminal histidine tag was added to human full-length CB1; FLAG (N); histidine tag (C); made in house; host or cells: Spodoptera frugiperda Sf9 (baculovirus)
Protocol: A minimal cysteine version of CB1R was generated[73] where all the cysteine residues (except C256 and C264) were mutated to alanine. […] Excess label was removed using size exclusion chromatography on a Superdex 200 10/300 Increase column in 20 mM HEPES pH 7.5, 100 mM NaCl and 0.01% MNG/0.001% CHS. Bimane-labeled CB1R at […] was incubated with ligands (10 μM) for one hour at room temperature. Fluorescence data was collected at room temperature in a 150 μL cuvette with a FluorEssence v3.8 software on a Fluorolog instrument (Horiba) in photon-counting mode. Bimane fluorescence was measured by excitation at 370 nm with excitation and emission bandwidth passes of 4 nm. The emission spectra were recorded from 410 to 510 nm with 1 nm increment and 0.1 s integration time.

hCB1 [1] = biological target: T3, hCB1 (Homo sapiens, UniProt P21554); test: Lance Ultra cAMP accumulation assay (inhibition of forskolin-stimulated cAMP), CHO cells; type: cell-based; set-up: expressed in transfected cells
Protocol: The inhibition of forskolin-stimulated cAMP accumulation assays was carried out using PerkinElmer’s Lance Ultra cAMP kit following the manufacturer’s protocol. In brief, CHO cells stably expressing human CB1R were harvested by incubation with Versene (ThermoFisher Scientific, Waltham, MA) for 10 min, washed once with Hank’s Balanced Salt Solution, and resuspended in stimulation buffer at ~200 cells/μL density. The ligands at eight different concentrations (0.001–10,000 nM) in stimulation buffer (5 μL) containing forskolin (2 μM final concentration) were added to a 384-well plate followed by the cell suspension (5 μL; ~1000 cells/well). The plate was incubated for 30 min at room temperature. Eu-cAMP tracer (5 μL) and Ulight-anti-cAMP (5 μL) working solutions were then added to each well, and the plate was incubated at room temperature for an additional 60 min. Results were measured on a Perkin-Elmer EnVision plate reader. The EC50 values were determined by nonlinear regression analysis using Prism software (GraphPad Software, Inc., San Diego, CA) and are expressed as the mean of three experiments, each performed in triplicate.

hCB1 [2] = biological target: T3, hCB1; test: bioSens-All ebBRET effector biosensor signaling profiling, HEK293; type: cell-based; set-up: host or cells: HEK293 (HEK293SL clone), transient
Protocol: ebBRET-based effector membrane translocation biosensor assays were conducted at Domain Therapeutics NA Inc. (Montreal, QC, Canada) as previously described. […] HEK293 cells were maintained in Dulbecco’s Modified Eagle Medium (DMEM) (Wisent) supplemented with 1% penicillin- streptomycin (Wisent) and 10% (or 2 % for transfection) fetal bovine serum (Wisent) at 37°C with 5% CO2. All biosensor-coding plasmids and related information are the property of Domain Therapeutics NA Inc. The total amount of transfected DNA was adjusted and kept constant at 1 μg per mL of cell culture to be transfected using salmon sperm DNA (Invitrogen) as ‘carrier’ DNA, PEI (polyethylenimine 25 kDa linear, PolyScience) and DNA (3:1 ml PEI:mg DNA ratio) were first diluted separately in 150 mM NaCl then mixed and incubated for at least 20 minutes at room temperature to allow for the formation of DNA/PEI complexes. During the incubation, HEK293 cells were detached, counted, and re-suspended in maintenance medium to a 350,000 cells per mL density. At the end of the incubation period, the DNA/PEI mixture was added to the cells. Cells were finally distributed in 96-well plates (White Opaque 96-well /Microplates, Greiner) at a density of 35,000 cells per well. Forty-eight hours post-transfection, medium was aspirated and replaced with 100 μl of Hank’s Balanced Salt Solution buffer (HBSS) (Wisent) per well using 450-Select TS Biotek plate washer. After 60 min incubation in this medium, 10 μL of 10 μM e-Coelenterazine Prolume Purple (Methoxy e-CTZ) (Nanolight) was added to each well for a final concentration of 1 μM immediately followed by addition of increasing concentrations of the test compounds to each well using the HP D300 digital dispenser (Tecan). All compounds were assayed at 22 concentrations with each biosensor after a 10-minute room temperature incubation period. […] All BRET ratios were standardized using the universal BRET (uBRET) equation: uBRET=BRETratio-A/B-A×10,000 where A is the BRET ratio obtained from transfection of negative control and B is the BRET ratio obtained from transfection of positive control. […] The data were analyzed using the four-parameter logistic non-linear regression model in GraphPad Prism 9.1 and data were presented as means ± CIs of 1–4 independent experiments.
The SEM was calculated for the logEmax/EC50 ratios using the following equation: SEM=σ/n where σ is the standard deviation, and n is the number of experiments.

C56BL/6 mice = test: Conditioned place preference; conditions: mouse, in vivo
Protocol: To determine if ‘4042 was inherently rewarding or aversive we used the conditioned place paradigm as described. Briefly, mice were first habituated to the test apparatus, twice, and their preference for each chamber recorded for 30 minutes (Pretest). Two conditioning days followed in which mice received the vehicle control or the compound, and 30 minutes later restricted for 30 minutes in the preferred or non-preferred chamber, respectively. On day 5 (Test day), mice were allowed to roam freely between the 3 chambers of the apparatus and their preference for each chamber recorded for 30 minutes. To calculate the CPP score, we subtracted the time spent in each chamber of the box on the Pretest day from that of the Test day (CPP score = Test - Pretest).

T3 sequence (P21554 whole entry): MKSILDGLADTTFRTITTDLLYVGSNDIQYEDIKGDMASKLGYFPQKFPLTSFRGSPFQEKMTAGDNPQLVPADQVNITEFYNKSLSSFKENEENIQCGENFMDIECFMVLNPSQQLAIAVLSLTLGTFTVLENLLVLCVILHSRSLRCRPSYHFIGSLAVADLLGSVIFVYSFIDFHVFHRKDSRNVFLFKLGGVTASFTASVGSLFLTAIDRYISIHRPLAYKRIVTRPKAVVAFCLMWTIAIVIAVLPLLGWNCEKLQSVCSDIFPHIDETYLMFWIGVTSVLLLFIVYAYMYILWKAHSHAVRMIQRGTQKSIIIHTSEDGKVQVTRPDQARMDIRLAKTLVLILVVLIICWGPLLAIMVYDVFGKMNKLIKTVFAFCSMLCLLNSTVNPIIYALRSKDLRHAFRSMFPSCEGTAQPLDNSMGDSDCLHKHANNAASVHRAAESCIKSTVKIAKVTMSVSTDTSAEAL
T1 sequence (P20272 whole entry): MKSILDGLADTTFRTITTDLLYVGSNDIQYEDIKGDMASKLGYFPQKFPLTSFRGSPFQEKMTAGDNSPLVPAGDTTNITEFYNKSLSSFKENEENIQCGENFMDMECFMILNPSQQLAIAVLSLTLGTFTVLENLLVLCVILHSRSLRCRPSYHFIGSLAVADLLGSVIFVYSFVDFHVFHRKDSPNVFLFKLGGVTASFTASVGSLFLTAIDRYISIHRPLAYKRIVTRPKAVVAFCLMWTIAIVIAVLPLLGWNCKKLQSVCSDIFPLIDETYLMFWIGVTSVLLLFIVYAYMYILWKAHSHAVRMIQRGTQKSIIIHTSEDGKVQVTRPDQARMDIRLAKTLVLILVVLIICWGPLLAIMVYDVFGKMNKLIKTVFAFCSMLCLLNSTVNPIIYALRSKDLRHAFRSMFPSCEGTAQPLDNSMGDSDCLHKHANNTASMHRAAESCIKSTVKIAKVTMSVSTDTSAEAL
T2 sequence (P21554 whole entry C98A/C107A/C139A/C149A/C238A/R336C/C355A/C382A/C386A/C415A/C431A/C449A): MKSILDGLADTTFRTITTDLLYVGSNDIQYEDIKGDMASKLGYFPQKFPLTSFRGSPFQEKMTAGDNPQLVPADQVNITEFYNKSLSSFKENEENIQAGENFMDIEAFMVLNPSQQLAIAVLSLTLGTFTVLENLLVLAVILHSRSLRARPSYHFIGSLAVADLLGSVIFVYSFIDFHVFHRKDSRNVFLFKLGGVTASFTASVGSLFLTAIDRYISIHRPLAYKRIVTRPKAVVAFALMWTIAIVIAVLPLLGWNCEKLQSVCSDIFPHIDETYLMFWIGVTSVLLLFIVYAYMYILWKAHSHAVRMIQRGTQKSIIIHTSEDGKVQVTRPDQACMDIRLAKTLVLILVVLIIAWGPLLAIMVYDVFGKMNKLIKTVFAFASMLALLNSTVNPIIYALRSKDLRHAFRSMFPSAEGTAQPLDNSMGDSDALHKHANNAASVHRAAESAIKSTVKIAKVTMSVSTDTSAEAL

SMILES | Emax (CB1; maximal radioligand displacement, read-out: rCB1 binding Emax [SEM]) | Ki (CB1; rCB1 binding Ki [95% CI]) | Ki (CB1; rCB1 binding pKi [95% CI]) | bimane spectrum λmax (CB1R) | EC50 (hCB1 [1]) | Emax (hCB1 [1]; CHO, read-out: hCB1 Lance Ultra cAMP Emax [95% CI]) | Emax (hCB1 [2]; HEK293, read-out: hCB1 Gi1 Emax [95% CI]) | Emax (hCB1 [2]; HEK293, read-out: hCB1 GoB Emax [95% CI]) | Emax (hCB1 [2]; HEK293, read-out: hCB1 Gz Emax [95% CI]) | EC50 (hCB1 [2]; hCB1 Gi1 EC50 [95% CI], Gi1 sensor) | EC50 (hCB1 [2]; hCB1 GoB EC50 [95% CI], GoB sensor) | EC50 (hCB1 [2]; hCB1 GoB pEC50 [95% CI], GoB sensor) | EC50 (hCB1 [2]; hCB1 Gz EC50 [95% CI], Gz sensor) | conditioned place preference (C56BL/6 mice)
COC(=O)[C@](C)(NC(=O)c1cc(C)n(-c2cccc(C(F)(F)F)c2)n1)c1cccs1 [‘8690] | 100% | 90 nM and 90.2 nM | 79.4 nM | 459 nm | 473 nM | 53% | 82% | 83% | 98% | 19.1 nM | 18 nM | 15.8 nM | 33 nM | –
CN1CC[C@]23c4c5ccc(O)c4O[C@H]2[C@@H](O)C=C[C@H]3[C@H]1C5 [morphine, reference compound] | – | – | – | – | – | – | – | – | – | – | – | – | – | significantly increased their preference
